We go through 19 compounds from patent US11078228B2, “Ectonucleotidase inhibitors and methods of use thereof” (Calithera Biosciences, Inc., priority 2018, dated 2021).

recombinant CD73, sequence (P21589 27-547): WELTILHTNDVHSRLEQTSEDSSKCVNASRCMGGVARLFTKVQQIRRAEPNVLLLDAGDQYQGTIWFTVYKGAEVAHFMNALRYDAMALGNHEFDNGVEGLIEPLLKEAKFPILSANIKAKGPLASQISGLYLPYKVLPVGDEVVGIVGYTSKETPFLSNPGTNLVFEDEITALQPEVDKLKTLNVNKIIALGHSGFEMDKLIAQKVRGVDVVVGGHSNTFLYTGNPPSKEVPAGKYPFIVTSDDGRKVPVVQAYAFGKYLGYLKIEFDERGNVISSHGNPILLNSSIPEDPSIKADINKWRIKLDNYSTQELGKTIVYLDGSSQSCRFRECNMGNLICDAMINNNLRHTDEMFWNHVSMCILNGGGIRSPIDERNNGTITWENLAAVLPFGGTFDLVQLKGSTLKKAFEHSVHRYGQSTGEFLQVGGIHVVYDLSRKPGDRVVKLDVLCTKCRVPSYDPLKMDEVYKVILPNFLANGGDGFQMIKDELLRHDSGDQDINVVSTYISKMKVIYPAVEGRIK

This experiment has as its target recombinant CD73 (Homo sapiens (Human), UniProt P21589). Briefly: Assay 1: Inhibition of the CD73 enzyme in vitro (0.5 nM CD73, 30 min room temperature, Malachite Green). It counts as biochemical. The note with it: 0.5 nM CD73, 30 minutes at room temperature. The method, then:
For measurements of soluble CD73 enzyme activity, recombinant CD73 was obtained from R&D Systems, Cat. No. 5795-EN-010. […] Reactions were allowed to proceed for 30 minutes at room temperature before the addition of 100 μL Malachite Green (Cell Signaling Technology, Cat. No. 12776). After 5 minutes at room temperature, absorbance at 630 nm was determined on a microplate spectrophotometer. The concentration of inorganic phosphate was determined using a phosphate standard curve.
The term IC50 denotes the midpoint of a concentration-inhibition curve. Regarding `C#C[C@@]1(O)[C@@H](CO[C@@](Cc2ccccc2)(C(=O)O)c2nnn[nH]2)O[C@@H](n2cnc3c(N)nc(Cl)nc32)[C@@H]1O` [Example 192, (R)-2-(((2R,3S,4R,5R)-5-(6-amino-2-chloro-9H-purin-9-yl)-3-ethynyl-3,4-dihydroxytetrahydrofuran-2-yl)methoxy)-3-phenyl-2-(1H-tetrazol-5-yl)propanoic acid], the IC50 amounted to 25 nM. On to `C#C[C@@]1(O)[C@@H](COC(C(=O)O)C(=O)N2CCCC2)O[C@@H](n2cnc3c(N)nc(Cl)nc32)[C@@H]1O` (stereo partly drawn) [Example 113, 2-(((2R,3S,4R,5R)-5-(6-amino-2-chloro-9H-purin-9-yl)-3-ethynyl-3,4-dihydroxytetrahydrofuran-2-yl)methoxy)-3-oxo-3-(pyrrolidin-1-yl)propanoic acid], for which the 50% inhibitory concentration (IC50) amounted to 331 nM.

With `C#C[C@@]1(O)[C@@H](COC(C(N)=O)C(N)=O)O[C@@H](n2cnc3c(NC4CCCC4)nc(Cl)nc32)[C@@H]1O` [Example 116, 2-(((2R,3S,4R,5R)-5-(2-chloro-6-(cyclopentylamino)-9H-purin-9-yl)-3-ethynyl-3,4-dihydroxytetrahydrofuran-2-yl)methoxy)malonamide], the IC50 is 8050 nM. The value for `C#C[C@@]1(O)[C@@H](COC(C(=O)O)C(=O)O)O[C@@H](n2cnc3c(N)nc(Cl)nc32)[C@@H]1O` [Example 26, 2-(((2R,3S,4R,5R)-5-(6-amino-2-chloro-9H-purin-9-yl)-3-ethynyl-3,4-dihydroxytetrahydrofuran-2-yl)methoxy)malonic acid] was 58 nM. The figure for `C#C[C@@]1(O)[C@@H](COC(Cc2ccsc2)(C(=O)O)C(=O)O)O[C@@H](n2cnc3c(N)nc(Cl)nc32)[C@@H]1O` [Example 24, 2-(((2R,3S,4R,5R)-5-(6-amino-2-chloro-9H-purin-9-yl)-3-ethynyl-3,4-dihydroxytetrahydrofuran-2-yl)methoxy)-2-(thiophen-3-ylmethyl)malonic acid] is 1.8 nM; for `C#C[C@@]1(O)[C@@H](COC(C(=O)O)S(=O)(=O)c2ccccc2)O[C@@H](n2cnc3c(NC4CCCC4)nc(Cl)nc32)[C@@H]1O` (stereo partly drawn) [Example 129, 2-(((2R,3S,4R,5R)-5-(2-chloro-6-(cyclopentylamino)-9H-purin-9-yl)-3-ethynyl-3,4-dihydroxytetrahydrofuran-2-yl)methoxy)-2-(phenylsulfonyl)acetic acid] it is 1580 nM; for `C#C[C@@]1(O)[C@@H](CO[C@@](Cc2ccccc2)(C(=O)O)c2cscn2)O[C@@H](n2cnc3c(N)nc(Cl)nc32)[C@@H]1O` (single isomer, unassigned) [Example 181] it is 21 nM.

For `C#C[C@@]1(O)[C@@H](COC(C(=O)OCC)P(=O)(O)O)O[C@@H](n2cnc3c(N4CCOCC4)nc(Cl)nc32)[C@@H]1O` (stereo partly drawn) [Example 124, (1-(((2R,3S,4R,5R)-5-(2-chloro-6-morpholino-9H-purin-9-yl)-3-ethynyl-3,4-dihydroxytetrahydrofuran-2-yl)methoxy)-2-ethoxy-2-oxoethyl)phosphonic acid], the half-maximal inhibitory concentration (IC50) was found to be 27 nM. The value for `C#C[C@@]1(O)[C@@H](COC(C(=O)O)S(C)(=O)=O)O[C@@H](n2cnc3c(NC4CCCC4)nc(Cl)nc32)[C@@H]1O` (stereo partly drawn) [Example 120, 2-(((2R,3S,4R,5R)-5-(2-chloro-6-(cyclopentylamino)-9H-purin-9-yl)-3-ethynyl-3,4-dihydroxytetrahydrofuran-2-yl)methoxy)-2-(methylsulfonyl)acetic acid] was 4630 nM; that for `C#C[C@@]1(O)[C@@H](CO[C@](C#N)(Cc2ccccc2)C(=O)O)O[C@@H](n2cnc3c(N)nc(Cl)nc32)[C@@H]1O` (single isomer, unassigned) [Example 189] was 1850 nM; that for `C#C[C@@]1(O)[C@@H](COC(Cc2ccccc2)(C(=O)O)C(=O)O)O[C@@H](n2cnc3c(NCC4CC4)nc(Cl)nc32)[C@@H]1O` [Example 92, 2-benzyl-2-(((2R,3S,4R,5R)-5-(2-chloro-6-((cyclopropylmethyl)amino)-9H-purin-9-yl)-3-ethynyl-3,4-dihydroxytetrahydrofuran-2-yl)methoxy)malonic acid] was 0.8 nM. As for `C#C[C@@]1(O)[C@@H](COC(Cc2cccc(C(F)(F)F)c2)(C(=O)O)C(=O)O)O[C@@H](n2cnc3c(N)nc(Cl)nc32)[C@@H]1O` [Example 50, 2-(((2R,3S,4R,5R)-5-(6-amino-2-chloro-9H-purin-9-yl)-3-ethynyl-3,4-dihydroxytetrahydrofuran-2-yl)methoxy)-2-(3-(trifluoromethyl)benzyl)malonic acid], the half-inhibitory concentration (IC50) was 3 nM. Regarding `C[C@@]1(O)[C@@H](COC(Cc2ccc(-c3ccccc3C(=O)O)cc2)(C(=O)O)c2cscn2)O[C@@H](n2cnc3c(N)nc(Cl)nc32)[C@@H]1O` (stereo partly drawn) [Example 200, 4′-(2-(((2R,3S,4R,5R)-5-(6-amino-2-chloro-9H-purin-9-yl)-3,4-dihydroxy-3-methyltetrahydrofuran-2-yl)methoxy)-2-carboxy-2-(thiazol-4-yl)ethyl)-[1,1′-biphenyl]-2-carboxylic acid], the IC50 turned out to be 6090 nM. The value for `Nc1nc(Cl)nc2c1ncn2[C@@H]1O[C@H](COC(C(=O)O)C(=O)O)[C@](O)(C#Cc2cc[nH]n2)[C@H]1O` [Example 27, 2-(((2R,3S,4R,5R)-3-((1H-pyrazol-3-yl)ethynyl)-5-(6-amino-2-chloro-9H-purin-9-yl)-3,4-dihydroxytetrahydrofuran-2-yl)methoxy)malonic acid] was 18 nM; that for `C#C[C@@]1(O)[C@@H](CO[C@@](Cc2ccccc2)(C(=O)O)c2cscn2)O[C@@H](n2cnc3c(NC)nc(Cl)nc32)[C@@H]1O` [Example 188, (R)-2-(((2R,3S,4R,5R)-5-(2-chloro-6-(methylamino)-9H-purin-9-yl)-3-ethynyl-3,4-dihydroxytetrahydrofuran-2-yl)methoxy)-3-phenyl-2-(thiazol-4-yl)propanoic acid] was 134 nM. The figure for `Nc1nc(Cl)nc2c1ncn2[C@@H]1O[C@H](COC(C(=O)O)C(=O)O)[C@](O)(C#Cc2ccnn2Cc2ccccc2)[C@H]1O` [Example 29, 2-(((2R,3S,4R,5R)-5-(6-amino-2-chloro-9H-purin-9-yl)-3-((1-benzyl-1H-pyrazol-5-yl)ethynyl)-3,4-dihydroxytetrahydrofuran-2-yl)methoxy)malonic acid] is 2 nM; for `C#C[C@@]1(O)[C@@H](COC(Cc2ccccc2)(C(=O)O)C(=O)O)O[C@@H](n2cnc3c(NC(C)C)nc(Cl)nc32)[C@@H]1O` [Example 93, 2-benzyl-2-(((2R,3S,4R,5R)-5-(2-chloro-6-(isopropylamino)-9H-purin-9-yl)-3-ethynyl-3,4-dihydroxytetrahydrofuran-2-yl)methoxy)malonic acid] it is 1.7 nM.

As for `C#C[C@@]1(O)[C@@H](COC(C(=O)OC)P(=O)(O)O)O[C@@H](n2cnc3c(N)nc(Cl)nc32)[C@@H]1O` (stereo partly drawn) [Example 123, (1-(((2R,3S,4R,5R)-5-(6-amino-2-chloro-9H-purin-9-yl)-3-ethynyl-3,4-dihydroxytetrahydrofuran-2-yl)methoxy)-2-methoxy-2-oxoethyl)phosphonic acid], the half-inhibitory concentration (IC50) was determined as 71 nM. The figure for `C#C[C@@]1(O)[C@@H](COC(C(N)=O)C(=O)O)O[C@@H](n2cnc3c(NC4CCCC4)nc(Cl)nc32)[C@@H]1O` (stereo partly drawn) [Example 115, 3-amino-2-(((2R,3S,4R,5R)-5-(2-chloro-6-(cyclopentylamino)-9H-purin-9-yl)-3-ethynyl-3,4-dihydroxytetrahydrofuran-2-yl)methoxy)-3-oxopropanoic acid] is 135 nM.
